Among the data in ChEMBL document CHEMBL4346719, “Discovery of novel acylhydrazone neuraminidase inhibitors” (Eur J Med Chem, 2019) are IC50 values, retold here.

The target in one test is Neuraminidase (Influenza A virus, UniProt B4URF0).
Test [1] is described as follows: Inhibition of influenza virus A/WSN/1933 (H1N1) neuraminidase using MUNANA as substrate preincubated for 10 mins followed by substrate addition and measured for 15 mins by fluorescence assay. More on the design: species or system Influenza A virus ([…]).

As a reminder, the IC50 is the concentration needed to halve the response being measured.

Chain of Neuraminidase (B4URF0 whole entry): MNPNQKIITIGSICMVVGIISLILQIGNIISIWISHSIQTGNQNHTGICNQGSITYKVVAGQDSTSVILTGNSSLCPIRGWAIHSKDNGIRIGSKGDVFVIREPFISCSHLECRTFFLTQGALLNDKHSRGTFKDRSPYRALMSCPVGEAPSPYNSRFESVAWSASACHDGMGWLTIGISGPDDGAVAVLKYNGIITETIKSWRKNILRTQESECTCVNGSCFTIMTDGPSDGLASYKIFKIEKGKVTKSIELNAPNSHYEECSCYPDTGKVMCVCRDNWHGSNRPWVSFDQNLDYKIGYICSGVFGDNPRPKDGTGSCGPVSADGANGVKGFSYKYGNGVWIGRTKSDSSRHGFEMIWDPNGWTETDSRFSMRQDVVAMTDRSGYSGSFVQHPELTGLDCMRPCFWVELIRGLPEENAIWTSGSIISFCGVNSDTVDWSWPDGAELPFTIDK

With `COc1ccccc1/C=N/NC(=O)C(=O)NCCCN1CCOCC1`, the IC50 against Neuraminidase was determined as 7.1 µM.
The same measure, in the same setting: the result for `COc1cc(/C=N/NC(=O)C(=O)NCCCN2CCOCC2)cc(OC)c1OC` reads 2.61 µM.
As for `CC(=O)N[C@H]1[C@H]([C@H](O)[C@H](O)CO)OC(P(=O)(O)O)=C[C@@H]1NC(=N)N`, half-maximal inhibition in test [1] (IC50) required 0.0006 µM.
At Neuraminidase, `O=C(NCCCN1CCOCC1)C(=O)N/N=C/c1ccc(O)c([N+](=O)[O-])c1` gave a concentration for half-maximal inhibition (IC50) of 4.37 µM.
Take `O=C(NCCCN1CCOCC1)C(=O)N/N=C/c1ccccc1O`: on Neuraminidase, the IC50 came to 6.48 µM.
On the same count and under the same terms, the result for `COc1cc(/C=N/NC(=O)C(=O)NCCCN2CCOCC2)cc(OC)c1O` reads 3.15 µM; that for `COc1cc(/C=N/NC(=O)C(=O)NCCCN2CCOCC2)ccc1O`, 4.67 µM; that for `COc1ccc(/C=N/NC(=O)C(=O)NCCCN2CCOCC2)cc1OC`, 2.37 µM.
